Experimental data as given in US20020137929A1, “1 - (3-heterocyclylphenyl) isothiourea, -isourea, -guanidine and -amidine herbicidal agents” (Intellectual Property Department, BASF Aktiengesellschaft, priority 1998, published 2002).

Key:
ZEAMX (Corn, Field) = assay: Preemergence herbicidal evaluation; assay type: in vivo, Zea mays; conditions: rated 4-5 weeks after treatment; for ZEAMX rating: preemergence, 0-9 scale
Summary of the method: (§1)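 Scores use a 0–9 visual scale covering stand, vigor, malformation, size and chlorosis relative to controls, rated four to five weeks after treatment. Before emergence, soil-planted seeds were sprayed with compound in aqueous acetone at roughly 0.0156–0.500 kg/ha and held in the greenhouse.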

[1] = system: IPOHE (Morningglory, Ivyleaf); assay: Preemergence herbicidal evaluation; assay type: in vivo, Ipomoea hederacea; conditions: rated 4-5 weeks after treatment; for IPOHE rating: preemergence, 0-9 scale
Summary of the method: as §1

ABUTH (Velvetleaf) = assay: Preemergence herbicidal evaluation; assay type: in vivo, Abutilon theophrasti; conditions: rated 4-5 weeks after treatment; for ABUTH rating: preemergence, 0-9 scale
Summary of the method: as §1

ECHCG (Barnyardgrass) = assay: Preemergence herbicidal evaluation; assay type: in vivo, Echinochloa crus-galli; conditions: rated 4-5 weeks after treatment; for ECHCG rating: preemergence, 0-9 scale
Summary of the method: as §1

MOOVA (Monochoria) = assay: Preemergence weed control under flooded paddy conditions; assay type: in vivo, Monochoria vaginalis; conditions: rated 3-4 weeks after treatment
Summary of the method: (§2)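 Visual injury scored 0-9 against control three to four weeks post-treatment, greenhouse-grown. Application: acetone/water (50/50) solutions dosed directly into flood water (1.5-3 cm over silt loam, planted top 0.5 cm), roughly 0.0313 to 0.500 kg/ha active ingredient.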

GALAP (Galium) = assay: Postemergence herbicidal evaluation; assay type: in vivo, Galium aparine; conditions: postemergence
Summary of the method: (§3)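 Rate range approx. 0.0156–0.500 kg/ha. Foliar application at 40 psi to ~2-week seedlings; surfactant 0.5% TWEEN 20 in 50/50 acetone/water. Evaluation 4–5 wk post-treatment by 0–9 visual injury score, means of replicate tests.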

[2] = system: IPOHE (Morningglory, Ivyleaf); assay: Postemergence herbicidal evaluation; assay type: in vivo, Ipomoea hederacea; conditions: postemergence
Summary of the method: as §3

[3] = system: SAGPY (Arrowhead (Pygmaea)); assay: Preemergence weed control under flooded paddy conditions; assay type: in vivo, Sagittaria pygmaea; conditions: rated 3-4 weeks after treatment
Summary of the method: as §2

CASOB (Sicklepod) [4] = assay: Postemergence herbicidal evaluation; assay type: in vivo, Cassia obtusifolia; conditions: postemergence
Summary of the method: as §3

CASOB (Sicklepod) [5] = assay: Preemergence herbicidal evaluation; assay type: in vivo, Cassia obtusifolia; conditions: rated 4-5 weeks after treatment; for CASOB rating: preemergence, 0-9 scale
Summary of the method: as §1

[6] = system: GLXMAW (Soybean, Williams); assay: Preemergence herbicidal evaluation; assay type: in vivo, Glycine max, (L.) Merr. cv Williams; conditions: rated 4-5 weeks after treatment; for GLXMAW rating: preemergence, 0-9 scale
Summary of the method: as §1

AMBEL (Ragweed, Common) = assay: Postemergence herbicidal evaluation; assay type: in vivo, Ambrosia artemisifolia; conditions: postemergence
Summary of the method: as §3

[7] = system: TRZAWR (Wheat, Winter, cv Riband); assay: Preemergence herbicidal evaluation; assay type: in vivo, Triticum aestivum; conditions: rated 4-5 weeks after treatment; for TRZAWR rating: preemergence, 0-9 scale
Summary of the method: as §1

C=CCOC(=O)CN1C(=O)CSC1=Nc1cc(-n2c(=O)cc(C(F)(F)F)n(C)c2=O)c(F)cc1Cl [Compound 106, Allyl 2-{{2-chloro-5-[3,6-dihydro-3-methyl-2,6-dioxo-4-(trifluoromethyl)-1(2H)-pyrimidinyl]-4-fluorophenyl}imino}-4-oxo-3-thiazolidineacetate]
ZEAMX rating (ZEAMX (Corn, Field); 0.0313 kg/ha): 1.0
ZEAMX rating (ZEAMX (Corn, Field); 0.0625 kg/ha): 2.5
ZEAMX rating (ZEAMX (Corn, Field); 0.1250 kg/ha): 4.0
ZEAMX rating (ZEAMX (Corn, Field); 0.2500 kg/ha): 5.0
Preemergence herbicidal rating ZEAMX (ZEAMX (Corn, Field); rate 0.0156 kg/ha): 0.0
IPOHE rating ([1]; 0.0313 kg/ha): 2.5
IPOHE rating ([1]; 0.0625 kg/ha): 7.0
IPOHE rating ([1]; 0.1250 kg/ha): 7.5
IPOHE rating ([1]; 0.2500 kg/ha): 9.0
Preemergence herbicidal rating IPOHE ([1]; rate 0.0156 kg/ha): 2.0
ABUTH rating (ABUTH (Velvetleaf); 0.0313 kg/ha): 6.5
ABUTH rating (ABUTH (Velvetleaf); 0.0625 kg/ha): 8.0
ABUTH rating (ABUTH (Velvetleaf); 0.1250 kg/ha): 9.0
ABUTH rating (ABUTH (Velvetleaf); 0.2500 kg/ha): 9.0
Preemergence herbicidal rating ABUTH (ABUTH (Velvetleaf); rate 0.0156 kg/ha): 5.0
ECHCG rating (ECHCG (Barnyardgrass); 0.0313 kg/ha): 1.0
ECHCG rating (ECHCG (Barnyardgrass); 0.0625 kg/ha): 1.5
ECHCG rating (ECHCG (Barnyardgrass); 0.1250 kg/ha): 2.0
ECHCG rating (ECHCG (Barnyardgrass); 0.2500 kg/ha): 7.0
Preemergence herbicidal rating ECHCG (ECHCG (Barnyardgrass); rate 0.0156 kg/ha): 0.0
MOOVA herbicidal effect rating (MOOVA (Monochoria); 0.0313 kg/ha): 9.0
MOOVA herbicidal effect rating (MOOVA (Monochoria); 0.0625 kg/ha): 9.0
MOOVA herbicidal effect rating (MOOVA (Monochoria); 0.1250 kg/ha): 9.0
MOOVA herbicidal effect rating (MOOVA (Monochoria); 0.2500 kg/ha): 9.0
herbicidal rating GALAP (GALAP (Galium); rate 0.0158 kg/ha): 1.0
herbicidal rating GALAP (GALAP (Galium); rate 0.0315 kg/ha): 1.0
herbicidal rating GALAP (GALAP (Galium); rate 0.0630 kg/ha): 1.0
herbicidal rating IPOHE ([2]; rate 0.0158 kg/ha): 9.0
herbicidal rating IPOHE ([2]; rate 0.0315 kg/ha): 9.0
herbicidal rating IPOHE ([2]; rate 0.0630 kg/ha): 9.0
SAGPY herbicidal effect rating ([3]; 0.0313 kg/ha): 3.0
SAGPY herbicidal effect rating ([3]; 0.0625 kg/ha): 4.0
SAGPY herbicidal effect rating ([3]; 0.1250 kg/ha): 5.0
SAGPY herbicidal effect rating ([3]; 0.2500 kg/ha): 7.0
herbicidal rating CASOB (CASOB (Sicklepod) [4]; rate 0.0158 kg/ha): 1.0
herbicidal rating CASOB (CASOB (Sicklepod) [4]; rate 0.0315 kg/ha): 1.0
herbicidal rating CASOB (CASOB (Sicklepod) [4]; rate 0.0630 kg/ha): 3.0
CASOB rating (CASOB (Sicklepod) [5]; 0.0313 kg/ha): 1.5
CASOB rating (CASOB (Sicklepod) [5]; 0.0625 kg/ha): 2.0
CASOB rating (CASOB (Sicklepod) [5]; 0.1250 kg/ha): 4.0
CASOB rating (CASOB (Sicklepod) [5]; 0.2500 kg/ha): 6.0
Preemergence herbicidal rating CASOB (CASOB (Sicklepod) [5]; rate 0.0156 kg/ha): 0.0
GLXMAW rating ([6]; 0.0313 kg/ha): 1.5
GLXMAW rating ([6]; 0.0625 kg/ha): 2.0
GLXMAW rating ([6]; 0.1250 kg/ha): 3.5
GLXMAW rating ([6]; 0.2500 kg/ha): 5.0
Preemergence herbicidal rating GLXMAW ([6]; rate 0.0156 kg/ha): 1.0
herbicidal rating AMBEL (AMBEL (Ragweed, Common); rate 0.0158 kg/ha): 7.0
herbicidal rating AMBEL (AMBEL (Ragweed, Common); rate 0.0315 kg/ha): 7.0
herbicidal rating AMBEL (AMBEL (Ragweed, Common); rate 0.0630 kg/ha): 9.0
TRZAWR rating ([7]; 0.0313 kg/ha): 0.0
TRZAWR rating ([7]; 0.0625 kg/ha): 2.0
TRZAWR rating ([7]; 0.1250 kg/ha): 3.0
TRZAWR rating ([7]; 0.2500 kg/ha): 5.0
Preemergence herbicidal rating TRZAWR ([7]; rate 0.0156 kg/ha): 0.0

Cn1c(C(F)(F)F)cc(=O)n(-c2cc(N=C3SCC(=O)N3CC(=O)OCC3CC3)c(Cl)cc2F)c1=O [Compound 124, Cyclopropylmethyl 2-{{2-chloro-5-[3,6-dihydro-3-methyl-2,6-dioxo-4-(trifluoromethyl)-1(2H)-pyrimidinyl]-4-fluorophenyl}imino}-4-oxo-3-thiazolidineacetate]
Preemergence herbicidal rating ZEAMX (ZEAMX (Corn, Field); rate 0.0156 kg/ha): 0.0
Preemergence herbicidal rating ZEAMX (ZEAMX (Corn, Field); rate 0.0313 kg/ha): 0.0
Preemergence herbicidal rating ZEAMX (ZEAMX (Corn, Field); rate 0.0625 kg/ha): 0.0
Preemergence herbicidal rating ZEAMX (ZEAMX (Corn, Field); rate 0.1250 kg/ha): 0.0
Preemergence herbicidal rating ZEAMX (ZEAMX (Corn, Field); rate 0.2500 kg/ha): 0.0
Preemergence herbicidal rating ZEAMX (ZEAMX (Corn, Field); rate 0.5000 kg/ha): 1.0
Preemergence herbicidal rating IPOHE ([1]; rate 0.0156 kg/ha): 0.0
Preemergence herbicidal rating IPOHE ([1]; rate 0.0313 kg/ha): 0.0
Preemergence herbicidal rating IPOHE ([1]; rate 0.0625 kg/ha): 0.0
Preemergence herbicidal rating IPOHE ([1]; rate 0.1250 kg/ha): 0.0
Preemergence herbicidal rating IPOHE ([1]; rate 0.2500 kg/ha): 1.0
Preemergence herbicidal rating IPOHE ([1]; rate 0.5000 kg/ha): 6.0
Preemergence herbicidal rating ABUTH (ABUTH (Velvetleaf); rate 0.0156 kg/ha): 0.0
Preemergence herbicidal rating ABUTH (ABUTH (Velvetleaf); rate 0.0313 kg/ha): 0.0
Preemergence herbicidal rating ABUTH (ABUTH (Velvetleaf); rate 0.0625 kg/ha): 0.0
Preemergence herbicidal rating ABUTH (ABUTH (Velvetleaf); rate 0.1250 kg/ha): 2.0
Preemergence herbicidal rating ABUTH (ABUTH (Velvetleaf); rate 0.2500 kg/ha): 4.0
Preemergence herbicidal rating ABUTH (ABUTH (Velvetleaf); rate 0.5000 kg/ha): 7.0
Preemergence herbicidal rating ECHCG (ECHCG (Barnyardgrass); rate 0.0156 kg/ha): 0.0
Preemergence herbicidal rating ECHCG (ECHCG (Barnyardgrass); rate 0.0313 kg/ha): 0.0
Preemergence herbicidal rating ECHCG (ECHCG (Barnyardgrass); rate 0.0625 kg/ha): 0.0
Preemergence herbicidal rating ECHCG (ECHCG (Barnyardgrass); rate 0.1250 kg/ha): 0.0
Preemergence herbicidal rating ECHCG (ECHCG (Barnyardgrass); rate 0.2500 kg/ha): 0.0
Preemergence herbicidal rating ECHCG (ECHCG (Barnyardgrass); rate 0.5000 kg/ha): 1.0
herbicidal effect rating, MOOVA (MOOVA (Monochoria); 0.0313 kg/ha): 0.0
herbicidal effect rating, MOOVA (MOOVA (Monochoria); 0.0625 kg/ha): 0.0
herbicidal effect rating, MOOVA (MOOVA (Monochoria); 0.1250 kg/ha): 0.0
herbicidal effect rating, MOOVA (MOOVA (Monochoria); 0.2500 kg/ha): 7.0
herbicidal rating GALAP (GALAP (Galium); rate 0.0156 kg/ha): 0.0
herbicidal rating GALAP (GALAP (Galium); rate 0.0313 kg/ha): 1.0
herbicidal rating GALAP (GALAP (Galium); rate 0.0625 kg/ha): 6.0
herbicidal rating IPOHE ([2]; rate 0.0156 kg/ha): 9.0
herbicidal rating IPOHE ([2]; rate 0.0313 kg/ha): 9.0
herbicidal rating IPOHE ([2]; rate 0.0625 kg/ha): 9.0
herbicidal effect rating, SAGPY ([3]; 0.0313 kg/ha): 0.0
herbicidal effect rating, SAGPY ([3]; 0.0625 kg/ha): 0.0
herbicidal effect rating, SAGPY ([3]; 0.1250 kg/ha): 4.0
herbicidal effect rating, SAGPY ([3]; 0.2500 kg/ha): 5.0
herbicidal rating CASOB (CASOB (Sicklepod) [4]; rate 0.0156 kg/ha): 2.0
herbicidal rating CASOB (CASOB (Sicklepod) [4]; rate 0.0313 kg/ha): 2.0
herbicidal rating CASOB (CASOB (Sicklepod) [4]; rate 0.0625 kg/ha): 3.0
Preemergence herbicidal rating CASOB (CASOB (Sicklepod) [5]; rate 0.0156 kg/ha): 0.0
Preemergence herbicidal rating CASOB (CASOB (Sicklepod) [5]; rate 0.0313 kg/ha): 0.0
Preemergence herbicidal rating CASOB (CASOB (Sicklepod) [5]; rate 0.0625 kg/ha): 1.0
Preemergence herbicidal rating CASOB (CASOB (Sicklepod) [5]; rate 0.1250 kg/ha): 0.0
Preemergence herbicidal rating CASOB (CASOB (Sicklepod) [5]; rate 0.2500 kg/ha): 3.0
Preemergence herbicidal rating CASOB (CASOB (Sicklepod) [5]; rate 0.5000 kg/ha): 0.0
Preemergence herbicidal rating GLXMAW ([6]; rate 0.0156 kg/ha): 0.0
Preemergence herbicidal rating GLXMAW ([6]; rate 0.0313 kg/ha): 0.0
Preemergence herbicidal rating GLXMAW ([6]; rate 0.0625 kg/ha): 0.0
Preemergence herbicidal rating GLXMAW ([6]; rate 0.1250 kg/ha): 0.0
Preemergence herbicidal rating GLXMAW ([6]; rate 0.2500 kg/ha): 0.0
Preemergence herbicidal rating GLXMAW ([6]; rate 0.5000 kg/ha): 3.0
herbicidal rating AMBEL (AMBEL (Ragweed, Common); rate 0.0156 kg/ha): 9.0
herbicidal rating AMBEL (AMBEL (Ragweed, Common); rate 0.0313 kg/ha): 9.0
herbicidal rating AMBEL (AMBEL (Ragweed, Common); rate 0.0625 kg/ha): 9.0
Preemergence herbicidal rating TRZAWR ([7]; rate 0.0156 kg/ha): 0.0
Preemergence herbicidal rating TRZAWR ([7]; rate 0.0313 kg/ha): 0.0
Preemergence herbicidal rating TRZAWR ([7]; rate 0.0625 kg/ha): 0.0
Preemergence herbicidal rating TRZAWR ([7]; rate 0.1250 kg/ha): 0.0
Preemergence herbicidal rating TRZAWR ([7]; rate 0.2500 kg/ha): 0.0
Preemergence herbicidal rating TRZAWR ([7]; rate 0.5000 kg/ha): 0.0
